Results: patent US20250326771A1, “PIPERAZINE DERIVATIVES USEFUL IN HIV THERAPY” (VIIV HEALTHCARE COMPANY, priority 2022, published 2025)
Read-outs that look alike come from different tables or passages of the source.

Experiments:
cIAP2-BIR2 = cIAP2-BIR2 (Homo sapiens (Human), UniProt Q13489); assay: BIR binding assay (FRET competition), cIAP2 BIR2
Outline: (§1)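 His-tagged domains (50 nM cIAP1-BIR3, 325 nM cIAP2-BIR2, 325 nM cIAP1-BIR2, 100 nM XIAP-BIR3) compete with compounds for a 200 nM AlexaFluor647-labelled SMAC/DIABLO peptide in HEPES buffer, pH 7.4, for 60 min. Then 2 nM Eu-W1024 is added for 30 min. The 615/665 nm ratio is fit by four-parameter fit to give IC50.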

cIAP2-BIR3 = cIAP2-BIR3 (Homo sapiens (Human), UniProt Q13489); assay: BIR binding assay (FRET competition), cIAP2 BIR3; conditions: for cIAP2 BIR3 vs BIR2 separation window: fold separation (FS) for cIAP2
[1] = test system: Jurkat HIV-luciferase clones; assay: Jurkat latency reversal assay; type: cell-based; conditions: Homo sapiens, 48 h; Jurkat latency reversal assay potency; read-out: Jurkat pEC50 (converted)
Outline: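 Luminescence read-out: Steady-Glo after 48 h, 37° C, on mixed Jurkat HIV-luc clones (C16, 115, N6; 5,000 cells/well total). Cpd 14-pt 3-fold dilutions, duplicate, top 10 μM, 0.5% DMSO. EC50 + max % activation vs vehicle via 4-parameter fit.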

cIAP1-BIR2 = cIAP1-BIR2 (Homo sapiens (Human), UniProt Q13490); assay: BIR binding assay (FRET competition), cIAP1 BIR2
Outline: as §1

cIAP1-BIR3 = cIAP1-BIR3 (Homo sapiens (Human), UniProt Q13490); assay: BIR binding assay (FRET competition), cIAP1 BIR3; conditions: for cIAP1 BIR3 vs BIR2 separation window: fold separation (FS) for cIAP1
Outline: as §1

XIAP-BIR2 = XIAP-BIR2 (Homo sapiens (Human), UniProt P98170); assay: BIR binding assay (FRET competition), XIAP BIR2; conditions: read-out: XIAP BIR2 (pIC50) (converted)
Outline: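 Compounds in a 15-point, 3-fold series competed with an AlexaFluor647 SMAC peptide (AVPIAQKSE, 200 nM) for 200 nM His-tagged XIAP-BIR2 over 60 min in pH 7.4 HEPES/CHAPS/DTT buffer. Eu-W1024 (2 nM) was then added for 30 min. IC50 and pIC50 were derived from the 615 nm/665 nm emission ratio by variable-slope fit.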

XIAP-BIR3 = XIAP-BIR3 (Homo sapiens (Human), UniProt P98170); assay: BIR binding assay (FRET competition), XIAP BIR3; conditions: for XIAP BIR3 vs BIR2 separation window: fold separation (FS) for XIAP
Outline: as §1

Sequence of XIAP-BIR2 (P98170 124-240): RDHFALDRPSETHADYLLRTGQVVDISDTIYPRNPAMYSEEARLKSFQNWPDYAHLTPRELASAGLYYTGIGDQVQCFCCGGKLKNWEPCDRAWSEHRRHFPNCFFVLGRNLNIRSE
Sequence of cIAP2-BIR3 (Q13489 238-349): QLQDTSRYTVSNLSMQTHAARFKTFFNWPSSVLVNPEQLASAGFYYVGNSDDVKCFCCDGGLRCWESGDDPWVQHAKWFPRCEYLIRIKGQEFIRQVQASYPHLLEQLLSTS
Sequence of XIAP-BIR3 (P98170 241-356): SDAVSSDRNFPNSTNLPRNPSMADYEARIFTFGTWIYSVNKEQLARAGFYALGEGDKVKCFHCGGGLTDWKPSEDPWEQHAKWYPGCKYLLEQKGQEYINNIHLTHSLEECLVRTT
Sequence of cIAP1-BIR3 (Q13490 253-363): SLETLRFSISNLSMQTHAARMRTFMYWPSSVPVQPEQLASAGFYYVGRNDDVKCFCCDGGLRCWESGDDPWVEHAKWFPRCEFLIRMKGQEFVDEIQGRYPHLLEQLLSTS
Sequence of cIAP1-BIR2 (Q13490 173-257): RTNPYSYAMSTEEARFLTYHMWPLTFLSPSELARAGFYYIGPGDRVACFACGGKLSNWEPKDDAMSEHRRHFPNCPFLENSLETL
Sequence of cIAP2-BIR2 (Q13489 158-242): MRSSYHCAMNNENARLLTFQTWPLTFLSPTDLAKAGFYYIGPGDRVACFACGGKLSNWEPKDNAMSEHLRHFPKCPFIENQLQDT

| Structure (SMILES) | IC50 (cIAP2-BIR2) [µM] | IC50 (cIAP2-BIR3) [µM] | cIAP2 BIR3 vs BIR2 separation window (cIAP2-BIR3) | EC50 [1] [µM] | IC50 (cIAP1-BIR2) [µM] | IC50 (cIAP1-BIR3) [µM] | cIAP1 BIR3 vs BIR2 separation window (cIAP1-BIR3) | IC50 (XIAP-BIR2; FRET competition) [µM] | IC50 (XIAP-BIR3) [µM] | XIAP BIR3 vs BIR2 separation window (XIAP-BIR3) | IC50 (XIAP-BIR2; FRET competition binding) [µM] |
| --- | --- | --- | --- | --- | --- | --- | --- | --- | --- | --- | --- |
| C[C@@H]1CN(CC(=O)N2CC(C)(C)c3[nH]c(=O)c(Oc4ccc(F)cc4)cc32)[C@@H](CN2CCO[C@H](C(=O)NCc3ccc(CNC(=O)[C@@H]4CN(C[C@H]5CN[C@H](C)CN5CC(=O)N5CC(C)(C)c6[nH]c(=O)c(Oc7ccc(F)cc7)cc65)CCO4)cc3)C2)CN1 [Compound 181, (2S,2′S)-N,N′-(1,4-phenylenebis(methylene)) bis(4-(((2R,5R)-1-(2-(6-(4-fluorophenoxy)-3,3-dimethyl-5-oxo-2,3,4,5-tetrahydro-1H-pyrrolo[3,2-b]pyridin-1-yl)-2-oxoethyl)-5-methylpiperazin-2-yl)methyl)morpholine-2-carboxamide)] | 3.16 to 10 | 0.00138 to 0.00794 | ++++ (FS>10,000) | 0.0631 to 0.316 | 3.16 to 10 | 0.00138 to 0.00794 | ++++ (FS>10,000) | 10 to 51.3 | 0.00138 to 0.00794 | ++++ (FS>10,000) |  |
| C[C@@H]1CN(CC(=O)N2CC(C)(C)c3[nH]c(=O)c(Cc4ccc(F)cc4)cc32)[C@@H](CN2CCC[C@H](NC(=O)Cc3cccc(CC(=O)N[C@H]4CCCN(C[C@H]5CN[C@H](C)CN5CC(=O)N5CC(C)(C)c6[nH]c(=O)c(Cc7ccc(F)cc7)cc65)C4)c3)C2)CN1 [Example 41, 2,2′-(1,3-phenylene)bis(N-((S)-1-(((2R,5R)-1-(2-(6-(4-fluorobenzyl)-3,3-dimethyl-5-oxo-2,3,4,5-tetrahydro-1H-pyrrolo[3,2-b]pyridin-1-yl)-2-oxoethyl)-5-methylpiperazin-2-yl)methyl)piperidin-3-yl)acetamide)] | 3.16 to 10 | 0.0316 to 0.501 | +++ (10,000>FS>1,000) | 0.316 to 3.31 | 3.16 to 10 | 0.0316 to 0.501 | +++ (10,000>FS>1,000) |  | 0.0316 to 0.501 | +++ (10,000>FS>1,000) | 10 to 51.3 |
| C[C@@H]1CN(CC(=O)N2CC(C)(C)c3[nH]c(=O)c(Cc4ccc(F)cc4)cc32)[C@@H](CN2CCC[C@@H](NC(=O)Cc3ccc(CC(=O)N[C@@H]4CCCN(C[C@H]5CN[C@H](C)CN5CC(=O)N5CC(C)(C)c6[nH]c(=O)c(Cc7ccc(F)cc7)cc65)C4)cc3)C2)CN1 [Example 48, 2,2′-(1,4-phenylene)bis(N-((R)-1-(((2R,5R)-1-(2-(6-(4-fluorobenzyl)-3,3-dimethyl-5-oxo-2,3,4,5-tetrahydro-1H-pyrrolo[3,2-b]pyridin-1-yl)-2-oxoethyl)-5-methylpiperazin-2-yl)methyl)piperidin-3-yl)acetamide)] | 10 to 51.3 | 0.0158 to 0.0316 | ++++ (FS>10,000) | 0.316 to 3.31 | 10 to 51.3 | 0.0158 to 0.0316 | +++ (10,000>FS>1,000) |  | 0.0158 to 0.0316 | ++++ (FS>10,000) | 10 to 51.3 |
| C[C@@H]1CN(CC(=O)N2CC(C)(C)c3[nH]c(=O)c(Cc4c(F)cc(F)cc4F)cc32)[C@@H](CN2CCO[C@H](C(=O)NCc3ccc(CNC(=O)[C@@H]4CN(C[C@H]5CN[C@H](C)CN5CC(=O)N5CC(C)(C)c6[nH]c(=O)c(Cc7c(F)cc(F)cc7F)cc65)CCO4)cc3)C2)CN1 [Compound 167, (2S,2′S)-N,N′-(1,4-phenylenebis(methylene)) bis(4-(((2R,5R)-1-(2-(3,3-dimethyl-5-oxo-6-(2,4,6-trifluorobenzyl)-2,3,4,5-tetrahydro-1H-pyrrolo[3,2-b]pyridin-1-yl)-2-oxoethyl)-5-methylpiperazin-2-yl)methyl)morpholine-2-carboxamide)] | 0.0224 to 1 | 0.00138 to 0.00794 | ++ (1,000>FS>100) | 0.00049 to 0.0126 | 0.0224 to 1 | 0.00794 to 0.0158 | ++ (1,000>FS>100) | 10 to 51.3 | 0.0158 to 0.0316 | ++++ (FS>10,000) |  |
